Read-outs that look alike come from different tables or passages of the source.
Tests used:
[1] = biological target: KRAS G12D (Homo sapiens, UniProt P01116, G12D); assay: GDP-GTP exchange assay (bodipy-GDP/GppNHp, SOS1), KRAS G12D; format: biochemical
[2] = test system: Caco-2 cells; assay: Caco2 assay (Papp A-B); format: in vitro ADME; conditions: test compound 50 μM, 120 min, 37° C.
Method in brief: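 Caco-2 monolayers grown 22–25 days on Transwells (TEER 300 Ω·cm^2) were dosed apically with 50 μM compound in HBSS; basolateral receiver held HBSS with 4% BSA. Incubation 120 min at 37° C, 5% CO2; donor and receiver samples quantified by LCMS and Papp A-B calculated from receiver-side cumulative flux slope.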

[3] = biological target: KRAS G12V (Homo sapiens, UniProt P01116, G12V); assay: GDP-GTP exchange assay (bodipy-GDP/GppNHp, SOS1), KRAS G12V; format: biochemical
[4] = Table H, column G12D, for compounds isolated as several atropisomers/diastereoisomers the value for the most potent isomer is quoted, read-out: KRAS G12D exchange assay IC50
[5] = Table H, column G12V, for compounds isolated as several atropisomers/diastereoisomers the value for the most potent isomer is quoted, read-out: KRAS G12V exchange assay IC50

Chain of KRAS G12D (P01116 1-188 isoform P01116-2 G12D): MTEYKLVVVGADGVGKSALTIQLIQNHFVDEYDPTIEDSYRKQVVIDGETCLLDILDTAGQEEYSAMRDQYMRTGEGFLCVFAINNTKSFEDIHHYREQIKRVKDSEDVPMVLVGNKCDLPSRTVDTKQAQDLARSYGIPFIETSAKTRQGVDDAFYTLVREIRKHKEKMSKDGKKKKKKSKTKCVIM
Chain of KRAS G12V (P01116 1-188 isoform P01116-2 G12V): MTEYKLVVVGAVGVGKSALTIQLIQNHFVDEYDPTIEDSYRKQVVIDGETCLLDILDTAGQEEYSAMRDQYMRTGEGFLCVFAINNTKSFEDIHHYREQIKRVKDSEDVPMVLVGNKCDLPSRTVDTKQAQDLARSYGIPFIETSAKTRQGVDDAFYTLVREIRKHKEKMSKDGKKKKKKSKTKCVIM

Cc1nc2c(F)c(-c3cccc(Cl)c3Cl)c(CCC#N)cc2c2c1cc([C@H]1C[C@H](Oc3ccnc(OC(F)F)c3)CN1C(=O)C1CC1)n2[C@H]1[C@H]2CN[C@@H]1C2 [Example 40, 3-(1-((1R,4R,5S)-2-Azabicyclo[2.1.1]hexan-5-yl)-2-((2R,4S)-1-(cyclopropanecarbonyl)-4-((2-(difluoromethoxy)pyridin-4-yl)oxy)pyrrolidin-2-yl)-7-(2,3-dichlorophenyl)-6-fluoro-4-methyl-1H-pyrrolo[3,2-c]quinolin-8-yl)propanenitrile]
IC50 [1, 4]: ≤ 100 nM
Caco-2 [2]: + (a Caco-2 value of ≤0.5)
IC50 [3, 5]: ≤ 100 nM

Cc1nc2c(F)c(-c3cccc(Cl)c3Cl)c(CCC#N)cc2c2c1cc([C@H]1C[C@H](n3cc(C(C)(C)C)nn3)CN1C(=O)C1CC1)n2[C@H]1[C@H]2CN[C@@H]1C2 [Example 4, 3-(1-((1R,4R,5S)-2-Azabicyclo[2.1.1]hexan-5-yl)-2-((2R,4S)-4-(4-(tert-butyl)-1H-1,2,3-triazol-1-yl)-1-(cyclopropanecarbonyl)pyrrolidin-2-yl)-7-(2,3-dichlorophenyl)-6-fluoro-4-methyl-1H-pyrrolo[3,2-c]quinolin-8-yl)propanenitrile]
IC50 [1, 4]: ≤ 100 nM
Caco-2 [2]: +++ (a Caco-2 value of >1)
IC50 [3, 5]: ≤ 100 nM

Cc1nc2c(F)c(-c3cccc(Cl)c3Cl)c(CCC#N)cc2c2c1cc([C@H]1C[C@H](OCc3nccs3)C3(CC3)N1C(=O)C1CC1)n2[C@H]1[C@H]2CN[C@@H]1C2 [Example 31]
IC50 [1, 4]: ≤ 100 nM
Caco-2 [2]: + (a Caco-2 value of ≤0.5)
IC50 [3, 5]: ≤ 100 nM

Cc1nc2c(F)c(-c3cccc(Cl)c3Cl)c(CCC#N)cc2c2c1cc([C@H]1C[C@H](OCc3ccsn3)CN1C(=O)C1CC1)n2[C@H]1[C@H]2CN[C@@H]1C2 [Example 14]
IC50 [1, 4]: ≤ 100 nM
Caco-2 [2]: + (a Caco-2 value of ≤0.5)
IC50 [3, 5]: ≤ 100 nM

Cc1nc2c(F)c(-c3cccc(Cl)c3Cl)c(CCC#N)cc2c2c1cc([C@H]1C[C@H](OCc3ccon3)CN1C(=O)C1CC1)n2[C@H]1[C@H]2CN[C@@H]1C2 [Example 12]
IC50 [1, 4]: ≤ 100 nM
Caco-2 [2]: + (a Caco-2 value of ≤0.5)
IC50 [3, 5]: ≤ 100 nM

CC(O)c1nc2c(F)c(-c3cccc(Cl)c3Cl)c(CCC#N)cc2c2c1cc([C@H]1C[C@H](OCc3ccc(F)cc3C#N)CN1C(=O)C1(C)CC1)n2[C@H]1[C@H]2CN[C@@H]1C2 (stereo partly drawn) [Example 35, 2-((((3S,5R)-5-(1-((1R,4R,5S)-2-Azabicyclo[2.1.1]hexan-5-yl)-8-(2-cyanoethyl)-7-(2,3-dichlorophenyl)-6-fluoro-4-(1-hydroxyethyl)-1H-pyrrolo[3,2-c]quinolin-2-yl)-1-(1-methylcyclopropane-1-carbonyl)pyrrolidin-3-yl)oxy)methyl)-5-fluorobenzonitrile]
IC50 [1, 4]: ≤ 100 nM
Caco-2 [2]: ++ (a Caco-2 value of >0.5 but ≤1)
IC50 [3, 5]: ≤ 100 nM

CC[C@@H]1[C@@H](Oc2cc(OC)ncc2F)C[C@H](c2cc3c([C@@H](C)O)nc4c(F)c(-c5cccc(Cl)c5Cl)c(CCC#N)cc4c3n2[C@H]2[C@H]3CN[C@@H]2C3)N1C(=O)C1CC1 [Example 82, 3-(1-((1R,4R,5S)-2-Azabicyclo[2.1.1]hexan-5-yl)-2-((2R,4S,5R)-1-(cyclopropanecarbonyl)-5-ethyl-4-((5-fluoro-2-methoxypyridin-4-yl)oxy)pyrrolidin-2-yl)-7-(2,3-dichlorophenyl)-6-fluoro-4-((R)-1-hydroxyethyl)-1H-pyrrolo[3,2-c]quinolin-8-yl)propanenitrile]
IC50 ([1]; bodipy-loaded KRAS G12D 2.5 nM, 4 h pre-incubation, value for the most potent isomer quoted for certain compounds, read-out: G12D (KRAS G12D exchange assay IC50)): ≤ 100 nM
Caco-2 [2]: +++ (a Caco-2 value of >1)
IC50 ([3]; KRAS G12V mutant, value for the most potent isomer quoted for certain compounds, read-out: G12V (KRAS G12V exchange assay IC50)): ≤ 100 nM

C[C@@H]1[C@@H](Oc2c(F)ccnc2Cl)C[C@H](c2cc3c([C@@H](C)O)nc4c(F)c(-c5cccc(Cl)c5Cl)c(CCC#N)cc4c3n2[C@H]2[C@H]3CN[C@@H]2C3)N1C(=O)C1CC1 [Example 64, 3-(1-((1R,4R,5S)-2-Azabicyclo[2.1.1]hexan-5-yl)-2-((2R,4S,5R)-4-((2-chloro-4-fluoropyridin-3-yl)oxy)-1-(cyclopropanecarbonyl)-5-methylpyrrolidin-2-yl)-7-(2,3-dichlorophenyl)-6-fluoro-4-((R)-1-hydroxyethyl)-1H-pyrrolo[3,2-c]quinolin-8-yl)propanenitrile]
IC50 [1, 4]: ≤ 100 nM
Caco-2 [2]: +++ (a Caco-2 value of >1)
IC50 [3, 5]: ≤ 100 nM

COc1cc(O[C@H]2C[C@H](c3cc4c([C@@H](C)O)nc5c(F)c(-c6cccc(Cl)c6Cl)c(CCC#N)cc5c4n3[C@H]3[C@H]4CN[C@@H]3C4)N(C(=O)C3CC3)[C@@H]2C)c(F)cn1 [Example 51, 3-(1-((1R,4R,5S)-2-Azabicyclo[2.1.1]hexan-5-yl)-2-((2R,4S,5R)-1-(cyclopropanecarbonyl)-4-((5-fluoro-2-methoxypyridin-4-yl)oxy)-5-methylpyrrolidin-2-yl)-7-(2,3-dichlorophenyl)-6-fluoro-4-((R)-1-hydroxyethyl)-1H-pyrrolo[3,2-c]quinolin-8-yl)propanenitrile]
IC50 [1, 4]: ≤ 100 nM
Caco-2 [2]: + (a Caco-2 value of ≤0.5)
IC50 [3, 5]: ≤ 100 nM

Cc1nc2c(F)c(-c3cccc(Cl)c3Cl)c(CCC#N)cc2c2c1cc([C@H]1C[C@H](OCc3cnsn3)CN1C(=O)C1CC1)n2[C@H]1[C@H]2CN[C@@H]1C2 [Example 13]
IC50 [1, 4]: ≤ 100 nM
Caco-2 [2]: + (a Caco-2 value of ≤0.5)
IC50 [3, 5]: ≤ 100 nM

COc1cc(O[C@H]2C[C@H](c3cc4c([C@@H](C)O)nc5c(F)c(-c6cccc(Cl)c6Cl)c(CCC#N)cc5c4n3[C@H]3[C@H]4CN[C@@H]3C4)N(C(=O)C3CC3)C2)ncn1 [Example 57, 3-(1-((1R,4R,5S)-2-Azabicyclo[2.1.1]hexan-5-yl)-2-((2R,4S)-1-(cyclopropanecarbonyl)-4-((6-methoxypyrimidin-4-yl)oxy)pyrrolidin-2-yl)-7-(2,3-dichlorophenyl)-6-fluoro-4-((R)-1-hydroxyethyl)-1H-pyrrolo[3,2-c]quinolin-8-yl)propanenitrile]
IC50 [1, 4]: ≤ 100 nM
Caco-2 [2]: ++ (a Caco-2 value of >0.5 but ≤1)
IC50 [3, 5]: ≤ 100 nM

[2H]C([2H])([2H])O[C@H]1CC[C@@H]1O[C@H]1C[C@H](c2cc3c(C)nc4c(F)c(-c5cccc(Cl)c5Cl)c(CCC#N)cc4c3n2[C@H]2[C@H]3CN[C@@H]2C3)N(C(=O)C2CC2)C1 (stereo in doubt) [Example 80, trans-3-(1-((1R,4R,5S)-2-Azabicyclo[2.1.1]hexan-5-yl)-2-((2R,4S)-1-(cyclopropanecarbonyl)-4-(2-(methoxy-d3)cyclobutoxy)pyrrolidin-2-yl)-7-(2,3-dichlorophenyl)-6-fluoro-4-methyl-1H-pyrrolo[3,2-c]quinolin-8-yl)propanenitrile]
IC50 [1, 4]: ≤ 100 nM
Caco-2 [2]: ++ (a Caco-2 value of >0.5 but ≤1)
IC50 [3, 5]: ≤ 100 nM

Cc1nc2c(F)c(-c3cccc(Cl)c3Cl)c(CCC#N)cc2c2c1cc([C@H]1C[C@H](Oc3cnn(C(F)F)c3)CN1C(=O)C1CC1)n2[C@H]1[C@H]2CN[C@@H]1C2 [Example 48, 3-(1-((1R,4R,5S)-2-Azabicyclo[2.1.1]hexan-5-yl)-2-((2R,4S)-1-(cyclopropanecarbonyl)-4-((1-(difluoromethyl)-1H-pyrazol-4-yl)oxy)pyrrolidin-2-yl)-7-(2,3-dichlorophenyl)-6-fluoro-4-methyl-1H-pyrrolo[3,2-c]quinolin-8-yl)propanenitrile]
IC50 [1, 4]: ≤ 100 nM
Caco-2 [2]: +++ (a Caco-2 value of >1)
IC50 [3, 5]: ≤ 100 nM

Cc1cc(CO[C@H]2C[C@H](c3cc4c(C)nc5c(F)c(-c6cccc(Cl)c6Cl)c(CCC#N)cc5c4n3[C@H]3[C@H]4CN[C@@H]3C4)N(C(=O)C3CC3)[C@@H]2C)ns1 [Example 3]
IC50 [1, 4]: ≤ 100 nM
Caco-2 [2]: ++ (a Caco-2 value of >0.5 but ≤1)
IC50 [3, 5]: ≤ 100 nM

Cc1cc(CO[C@H]2C[C@H](c3cc4c(C)nc5c(F)c(-c6cccc(Cl)c6Cl)c(CCC#N)cc5c4n3[C@H]3[C@H]4CN[C@@H]3C4)N(C(=O)C3CC3)C2)ns1 [Example 15]
IC50 [1, 4]: ≤ 100 nM
Caco-2 [2]: +++ (a Caco-2 value of >1)
IC50 [3, 5]: ≤ 100 nM

COc1ncccc1CO[C@H]1C[C@H](c2cc3c(C)nc4c(F)c(-c5cccc(Cl)c5Cl)c(CCC#N)cc4c3n2[C@H]2[C@H]3CN[C@@H]2C3)N(C(=O)C2CC2)C1 [Example 27]
IC50 [1, 4]: ≤ 100 nM
Caco-2 [2]: ++ (a Caco-2 value of >0.5 but ≤1)
IC50 [3, 5]: ≤ 100 nM

Cc1nc2c(F)c(-c3cccc(Cl)c3Cl)c(CCC#N)cc2c2c1cc([C@H]1C[C@H](Oc3cnn(C)c3C(F)F)CN1C(=O)C1CC1)n2[C@H]1[C@H]2CN[C@@H]1C2 [Example 47, 3-(1-((1R,4R,5S)-2-Azabicyclo[2.1.1]hexan-5-yl)-2-((2R,4S)-1-(cyclopropanecarbonyl)-4-((5-(difluoromethyl)-1-methyl-1H-pyrazol-4-yl)oxy)pyrrolidin-2-yl)-7-(2,3-dichlorophenyl)-6-fluoro-4-methyl-1H-pyrrolo[3,2-c]quinolin-8-yl)propanenitrile]
IC50 [1, 4]: ≤ 100 nM
Caco-2 [2]: + (a Caco-2 value of ≤0.5)
IC50 [3, 5]: ≤ 100 nM

Cc1nc2c(F)c(-c3cccc(Cl)c3Cl)c(CCC#N)cc2c2c1cc([C@H]1C[C@H](OCc3ccc(F)cc3C#N)CN1C(=O)C1CC1)n2[C@H]1[C@H]2CN[C@@H]1C2 [Example 17]
IC50 [1, 4]: ≤ 100 nM
Caco-2 [2]: + (a Caco-2 value of ≤0.5)
IC50 [3, 5]: ≤ 100 nM

Source: patent US20240390340A1 (INCYTE CORPORATION, priority 2023, published 2024)
